Test results reported in US11130733B2, “4-OXO-alkylated tetramic acid compound, preparation method and use thereof” (BEIJING JOEKAI BIOTECH. LLC, priority 2017, dated 2021).

Key:
[1] = system: Drosophilae containing and expressing human Abeta42 gene; experiment: Pavlov's olfactory-related instantaneous memory test in Drosophila; format: in vivo; conditions: test medicament 100 μM, 50 μL per 100 drosophilae, 7 consecutive days; FIG. 1 and FIG. 2
Excerpt: Drosophila has a classical learning and memory paradigm, known as Pavlov's olfactory-related instantaneous memory. During the training program, a group of about 100 drosophilae were exposed sequentially to two odors, i.e., 3-octanol and 4-methylcyclohexanol, each odor for 60 seconds, and to fresh air for 45 seconds therebetween. During exposure to the first odor, the drosophilae were electrocuted on their feet (1.5-second pulses at 3.5-second intervals, 60V), while no electrocution was exerted during exposure to the second odor. In order to detect “instantaneous memory” (also known as “learning”), drosophilae were transferred to the selection area in the T maze immediately after training and forced to choose between the two odors. The drosophilae in each T-maze arm were then captured, anesthetized, and counted. The behavior index was calculated from the distribution of drosophilae in the T maze. […] In each experiment, the age of the control group was matched with that of the experimental group.
Pharmacodynamic evaluation of the candidate compounds: Drosophilae containing and expressing human Abeta42 gene were selected as a diseased control, and drosophilae containing but not expressing human Abeta42 gene were selected as a healthy control. The day after emergence of the drosophilae, male drosophilae were selected and fed. Starting from the third day, drosophilae were fed with a test medicament (100 μM, 50 μL per 100 drosophilae) for 7 consecutive days, 4 hours each day. The above memory test was performed on the drosophilae on the tenth day.

[2] = system: Drosophilae containing and expressing human Abeta42 gene; experiment: as above; format: in vivo; conditions: FIG. 3; with increase of dosage; compared with positive compound memantine hydrochloride
[3] = system: Salmonella typhimurium TA98; experiment: Mini Ames experiment, strain TA98; format: cell-based
Experimental: (§1) Histidine auxotrophic strains of Salmonella typhimurium were cultured in a special medium with quite a low content of histidine. The strains were difficult to divide due to lack of nutrition. If a test compound has mutagenicity, a large number of cells will undergo reverse mutation, synthesizing histidine by themselves and developing into colonies visible to the naked eye. In view of the close relationship between mutagenicity and carcinogenesis of chemicals, this method has been widely used in screening carcinogens. Some chemicals need metabolic activation to induce mutagenicity. Mammalian microsomal enzyme S9 can be added into the test system to eliminate the influence of metabolic activation on generation of mutagenicity.
(§2) […] Mini Ames test with compound 50561

[4] = system: Salmonella typhimurium TA100; experiment: Mini Ames experiment, strain TA100; format: cell-based
Experimental: as §1, §2

[5] = TA98, Without Metabolic Activation, control article 2.0 μg per well
[6] = TA100, Without Metabolic Activation, control article 0.2 μg per well
[7] = TA98, With Metabolic Activation, control article 0.4 μg per well
[8] = TA100, With Metabolic Activation, control article 0.4 μg per well

How did the “ability to improve the learning and memory of drosophilae” value (“ability” below) [1] turn out when `COc1ccc(C[C@@H]2NC(=O)C=C2OCc2ccc(OC(C)=O)cc2)cc1` [Compound 60111] was run?
Its value is “quite a good ability to improve learning and memory of drosophilae”.

How did the “ability” value [1] turn out when `O=C1C=C(OCc2ccccc2F)[C@H](Cc2ccccc2)N1` [Compound 51121] was run?
The value was “best ability to improve the learning and memory of drosophilae”.

And the “dose-effect relationship to improve memory of drosophilae” value [2]?
The value was “eventually reaches or exceeds the level of the activity of the positive compound memantine hydrochloride”.

What does the source list for `O=C1C=C(OCc2cccc3ccccc23)[C@H](Cc2ccccc2)N1` [Compound 51311]?
ability to improve the learning and memory of drosophilae [1]: best ability to improve the learning and memory of drosophilae; dose-effect relationship to improve memory of drosophilae [2]: eventually reaches or exceeds the level of the activity of the positive compound memantine hydrochloride

How did the “Mean Revertants Per Well” value [3, 5] turn out when `O=[N+]([O-])c1ccc2c(c1)Cc1ccccc1-2` [Compound 2-NF, reference compound] was run?
The value was 421.00.

What about the “Ratio Treated/Solvent” value [3, 5] of the same compound?
The value was 61.61.

With `[N-]=[N+]=[N-].[Na+]` [SA, reference compound] as the compound, how does the “Mean Revertants Per Well” value [4, 6] read?
Its value is 195.33.

What about the “Ratio Treated/Solvent” value [4, 6] of the same compound?
Its value is 7.92.

With `Nc1ccc2cc3ccccc3cc2c1` [Compound 2-AA, reference compound] as the compound, how does the “Mean Revertants Per Well” value [3, 7] read?
The value was 297.67.

What about the “Ratio Treated/Solvent” value [3, 7] of the same compound?
The value was 35.72.

What about the “Mean Revertants Per Well” value [4, 8] of the same compound?
Its value is 317.67.

And the “Ratio Treated/Solvent” value [4, 8]?
Its value is 9.72.

Which “ability” value [1] does the source give for `CC(=O)Oc1ccc(COC2=CC(=O)N[C@H]2Cc2ccccc2)cc1` [Compound 51351] here?
Its value is “best ability to improve the learning and memory of drosophilae”.

And the “dose-effect relationship to improve memory of drosophilae” value [2]?
The value was “eventually reaches or exceeds the level of the activity of the positive compound memantine hydrochloride”.

What does the source list for `O=C1C=C(OCc2cccs2)[C@H](Cc2ccccc2)N1` [Compound 51151]?
ability to improve the learning and memory of drosophilae [1]: best ability to improve the learning and memory of drosophilae; dose-effect relationship to improve memory of drosophilae [2]: eventually reaches or exceeds the level of the activity of the positive compound memantine hydrochloride
